Here are results for 28 compounds from US20090209536A1, “AMINOQUINAZOLINE CANNABINOID RECEPTOR MODULATORS FOR TREATMENT OF DISEASE” (KALYPSYS, INC., priority 2007, published 2009).

The structures appear in SMILES notation. Where two headings read alike, the source gives them in different places.

Assay [1] concerns the target T1, human cannabinoid receptor type 2 (Homo sapiens, UniProt P34972).
T1 construct: expressed in transfected cells; membrane preparation
The assay can be described thus: Human CB2 Radioligand Binding Assay. To be noted: membranes from stably transfected CHO CB2 cells. As for the experimental part:
1. Human CB2 Radioligand Binding Assay
This receptor binding filtration assay measures the receptor-ligand interactions of compounds by measuring ability to compete with a radiolabeled control ligand. Reactions were performed in 96 deep-well plate (Costar 3961) with a final volume of 600 ul. Compounds were added to each well either in single point (10 uM final) or dose-response. Compounds were delivered in DMSO or further diluted in incubation buffer to a final assay DMSO concentration of 1%. Incubation buffer (50 mM Tris-HCl pH 7.4, 2.5 mM EGTA, 5 mM MgCl2, 5.0 mg/ml fatty acid free BSA) was added to each well. Following buffer addition, [^3H] CP-55,940 was added. Tritiated CP-55,940 (Perkin Elmer) was used at the Kd determined from prior saturation binding experiments conducted on each lot of membranes. Membrane preparations from stably transfected CHO CB2 cells were added and the reaction was incubated for 90 minutes at 30° C. Unifilter GF/C filtration plates (Perkin Elmer) were pre-wet with 0.05% polyethylenimine. Samples were transferred to Unifilter plates and separation of unbound radioligand was achieved using a vacuum manifold (Millipore). Following thorough washing with 5 ml/well ice-cold wash buffer (50 mM Tris-HCl pH 7.4, 2.5 mM EGTA, 5 mM MgCl2, 0.5 mg/ml fatty acid free BSA), filterplates were dried completely. Betaplate Scint Scintillation cocktail (25 ul, Perkin Elmer) was applied and plates were read using Microbeta Trilux (Wallac). Data analysis was performed in Spotfire. Activity of the positive control (100 nM CP-55,940) was set as 100% efficacy.
Stable recombinant Human CB2-CHO cell membranes were prepared as follows: Chinese Hamster Ovarian (CHO) cells stably expressing human cannabinoid receptor type 2 were grown to 90% confluence in 15×100 mm culture dishes under puromycin selection (5 ug/ml) Cells were harvested from culture flasks using a cell scraper, were washed once with cold phosphate-buffered saline (calcium and magnesium free) and pelleted by centrifugation at 400 g for 5 min at 4° C. Cell pellet was washed once with cold phosphate-buffered saline and centrifuged again at 400×g for 5 min at 4° C. The pellet was suspended in ice-cold lysis buffer (10 mM Tris-HCl, 0.1 mM EDTA, containing […], pH 7.5) and homogenized in a chilled 7 ml glass dounce homogenizer using 50 strokes. The homogenate was centrifuged at 400 g for 15 min at 4° C. The cloudy supernatant was collected and centrifuged at 41000 g for 30 min at 4° C. The resulting pellet was washed with ice-cold sucrose-free lysis buffer and centrifuged again at 41000 g for 30 min at 4° C. The membrane pellet was suspended in sucrose-free storage buffer (10 mm Tris-HCl, 0.1 mM EDTA, pH 7.5) to a concentration of 2-3 mg protein/ml. Aliquots were flash frozen in liquid nitrogen and stored at −80° C. Concentration was determined using Dc protein assay kit (Bio-Rad).

The target in assay [2] is T2, human cannabinoid receptor type 1 (Homo sapiens, UniProt P21554).
T2 construct: purchased Perkin Elmer RBHCB1M; host or cells: HEK 293 EBNA cells
T2 sequence (P21554 whole entry): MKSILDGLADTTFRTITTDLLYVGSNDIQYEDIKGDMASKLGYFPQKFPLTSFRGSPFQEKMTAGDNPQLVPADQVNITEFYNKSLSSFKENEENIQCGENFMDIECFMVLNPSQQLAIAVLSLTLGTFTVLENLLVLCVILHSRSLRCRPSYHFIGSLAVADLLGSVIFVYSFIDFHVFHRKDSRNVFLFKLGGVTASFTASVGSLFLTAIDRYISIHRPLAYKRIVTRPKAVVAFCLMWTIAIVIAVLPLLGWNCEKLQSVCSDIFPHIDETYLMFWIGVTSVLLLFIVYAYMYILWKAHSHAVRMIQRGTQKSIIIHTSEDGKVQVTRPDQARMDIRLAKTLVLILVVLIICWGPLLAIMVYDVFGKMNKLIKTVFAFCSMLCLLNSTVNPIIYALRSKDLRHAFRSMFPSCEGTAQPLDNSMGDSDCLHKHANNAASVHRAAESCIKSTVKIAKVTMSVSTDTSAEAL
The assay can be described thus: Human CB1 Radioligand Binding Assay (basis of selectivity, CB2 vs. CB1). The note with it: CB1: HEK 293 EBNA cells expressing human CB1; CB2: CHO CB2 membranes. How it is done:
2. Human CB1 Radioligand Binding Assay
The incubation buffer was composed of 50 mM Tris-HCl pH 7.4, 2.5 mM EDTA, 5 mM MgCl2, 5.0 mg/ml fatty acid free BSA and the wash buffer was composed of 50 mM Tris-HCl pH 7.4, 2.5 mM EDTA, 5 mM MgCl2, 0.5 mg/ml fatty acid free BSA.

[3] abbreviates: competition with [3H] CP-55,940, read-out: CB2 Ligand Binding Asssay EC50.

T1 sequence (P34972 whole entry): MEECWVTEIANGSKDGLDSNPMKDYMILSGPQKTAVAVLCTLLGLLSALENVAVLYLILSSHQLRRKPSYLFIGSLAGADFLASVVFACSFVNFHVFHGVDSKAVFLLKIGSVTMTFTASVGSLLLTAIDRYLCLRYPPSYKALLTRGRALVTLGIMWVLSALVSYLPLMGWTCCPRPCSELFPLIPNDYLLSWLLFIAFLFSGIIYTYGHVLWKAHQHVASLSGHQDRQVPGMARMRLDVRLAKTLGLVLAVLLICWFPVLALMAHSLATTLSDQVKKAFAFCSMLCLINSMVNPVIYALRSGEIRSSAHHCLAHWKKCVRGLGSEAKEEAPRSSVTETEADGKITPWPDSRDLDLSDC

As to `CC(C)(C)c1ccc(-c2nc(NCC3CC3)c3ccccc3n2)cc1` [Example 130, 2-(4-tert-Butylphenyl)quinazolin-4-yl cyclopropylmethylamine], the EC50 (usually the concentration that produces a half-maximal response) in assay [1] (setting [3]) is under 1000 nM. In addition, the “Selectivity, CB2 vs. CB1” value in assay [2] is given as “+ (+ indicates > 10−fold)”. With `CC(C)c1nc(N2CCOCC2)c2ccccc2n1` [Example 147, 2-Isopropyl-4-morpholin-4-ylquinazoline], the EC50 in assay [1] (CB2 Ligand Binding Asssay EC50, competition with [3H] CP-55,940) is over 1000 nM. Further, the “Selectivity, CB2 vs. CB1” value in assay [2] was “− (− indicates ≦ 10−fold)”.

`Clc1ccccc1-c1nc(N2CCCC2)c2ccccc2n1` [Example 53, 2-(2-Chlorophenyl)-4-(pyrrolidin-1-yl)quinazoline]: in assay [1] (setting [3]), the EC50 was over 1000 nM. In addition, the “Selectivity, CB2 vs. CB1” value in assay [2] is recorded as “+ (+ indicates > 10−fold)”. For `O=S(=O)(NCc1nc(N2CCOCC2)c2ccccc2n1)c1ccc(Cl)cc1Cl` [Example 294, 2,4-Dichloro-N-((4-morpholinoquinazolin-2-yl)methyl)benzenesulfonamide], the EC50 in assay [1] (setting [3]) was over 1000 nM. For the same compound, in assay [2], the “Selectivity, CB2 vs. CB1” value is “− (− indicates ≦ 10−fold)”. As to `COC(=O)c1ccc2nc(-c3ccccc3Cl)nc(Nc3cc(OC)cc(OC)c3)c2c1` [Example 328, Methyl 2-(2-chlorophenyl)-4-(3,5-dimethoxyphenylamino)quinazoline-6-carboxylate], in assay [1] (setting [3]), the EC50 is over 1000 nM. Moreover, in assay [2], the “Selectivity, CB2 vs. CB1” value was “− (− indicates ≦ 10−fold)”. On to `CN(c1ccc(C(C)(C)C)cc1)c1nc(-c2ccccc2Cl)nc2ccccc12` [Example 81, (4-tert-Butylphenyl)-[2-(2-chlorophenyl)quinazolin-4-yl]methylamine], for which the EC50 in assay [1] (setting [3]) was over 1000 nM. The “Selectivity, CB2 vs. CB1” value in assay [2] is recorded as “− (− indicates ≦ 10−fold)”.

Take `CN1CCN(c2nc(-c3ccc(C(F)(F)F)cc3)nc3ccccc23)CC1` [Example 42, 4-(4-Methylpiperazin-1-yl)-2-(4-(trifluoromethyl)phenyl)quinazoline]: the EC50 in assay [1] (setting [3]) is under 1000 nM. Moreover, in assay [2], the “Selectivity, CB2 vs. CB1” value is given as “+ (+ indicates > 10−fold)”. The corresponding values for `c1ccc2c(N3CCOCC3)nc(C3CCCCC3)nc2c1` [Example 35, 4-(2-Cyclohexylquinazolin-4-yl)morpholine] are under 1000 nM and “− (− indicates ≦ 10−fold)”. For `CCN1CCN(c2nc(-c3ccccc3Cl)nc3ccccc23)CC1` [Example 105, 2-(2-chlorophenyl)-4-(4-ethylpiperazin-1-yl)quinazoline], the concentration giving a half-maximal response (EC50) in assay [1] (setting [3]) was under 1000 nM. Besides, the “Selectivity, CB2 vs. CB1” value in assay [2] was “+ (+ indicates > 10−fold)”.

Turning to `CCOC(=O)N1CCN(c2nc(C(C)c3ccccc3C)nc3ccccc23)CC1` (stereo not shown) [Example 338, Ethyl 4-(2-(1-o-tolylethyl)quinazolin-4-yl)piperazine-1-carboxylate], the EC50 in assay [1] (setting [3]) was over 1000 nM. Besides, the “Selectivity, CB2 vs. CB1” value in assay [2] is reported as “+ (+ indicates > 10−fold)”.

Take `CCN(CC)C(=O)c1ccc2c(N3CCN(C(C)=O)CC3)nc(-c3ccccc3Cl)nc2c1` [Example 323, 4-(4-Acetylpiperazin-1-yl)-2-(2-chlorophenyl)-N,N-diethylquinazoline-7-carboxamide]: the EC50 in assay [1] (setting [3]) was over 1000 nM. Besides, the “Selectivity, CB2 vs. CB1” value in assay [2] is given as “− (− indicates ≦ 10−fold)”.

`CN1CCN(c2nc(CNS(=O)(=O)c3ccc4ccccc4c3)nc3ccccc23)CC1` [Example 6, N-((4-(4-methylpiperazin-1-yl)quinazolin-2-yl)methyl)naphthalene-2-sulfonamide]: the EC50 in assay [1] (setting [3]) was over 1000 nM. For the same compound, in assay [2], the “Selectivity, CB2 vs. CB1” value is on record as “+ (+ indicates > 10−fold)”. Regarding `OC1(c2ccc(Cl)cc2)CCN(c2nc(-c3ccccc3Cl)nc3ccccc23)CC1` [Example 66, 4-(4-Chlorophenyl)-1-[2-(2-chlorophenyl)quinazolin-4-yl]piperidin-4-ol], in assay [1] (setting [3]), the EC50 was under 1000 nM. In assay [2], the “Selectivity, CB2 vs. CB1” value is “− (− indicates ≦ 10−fold)”.

As to `CN1CCN(c2nc(-c3ccccc3Cl)nc3ccc(OC(F)(F)F)cc23)CC1` [Example 180, 2-(2-Chlorophenyl)-4-(4-methylpiperazin-1-yl)-6-(trifluoromethoxy) quinazoline], in assay [1] (setting [3]), the EC50 was under 1000 nM. For the same compound, the “Selectivity, CB2 vs. CB1” value in assay [2] is “− (− indicates ≦ 10−fold)”. The like results for `CCOC(=O)N1CCN(c2nc(-c3ccccc3Cl)nc3cc(C(=O)OC)ccc23)CC1` [Example 317, Methyl 2-(2-chlorophenyl)-4-(4-(ethoxycarbonyl)piperazin-1-yl)quinazoline-7-carboxylate] were, in that order, over 1000 nM and “− (− indicates ≦ 10−fold)”. As for `COC(=O)c1ccc2nc(-c3ccccc3Cl)nc(Nc3ccccc3C)c2c1` [Example 329, Methyl 2-(2-chlorophenyl)-4-(o-tolylamino)quinazoline-6-carboxylate], the EC50 in assay [1] (setting [3]) was over 1000 nM. As for `c1ccc2c(N3CCCC3)nc(C3CCCC3)nc2c1` [Example 135, 2-Cyclopentyl-4-pyrrolidin-1-ylquinazoline], the EC50 in assay [1] (setting [3]) is over 1000 nM.

Consider `Fc1ccc(-c2nc(N3CCCC3)c3ccccc3n2)cc1F` [Example 14, 2-(3,4-Difluorophenyl)-4-(pyrrolidin-1-yl)quinazoline], for which, in assay [1] (setting [3]), the EC50 is over 1000 nM. On to `CC(C)(C)c1ccc(-c2nc(NC3CCCCC3)c3ccccc3n2)cc1` [Example 129, 2-(4-tert-Butylphenyl)quinazolin-4-yl cyclohexylamine], for which the EC50 in assay [1] (setting [3]) was under 1000 nM.

As to `CCOC(=O)N1CCN(c2nc(-c3ccccc3Cl)nc3cc(C(=O)N(CC)CC)ccc23)CC1` [Example 319, Ethyl 4-(2-(2-chlorophenyl)-7-(diethylcarbamoyl)quinazolin-4-yl)piperazine-1-carboxylate], in assay [1] (setting [3]), the EC50 is over 1000 nM. As for `CN1CCN(c2nc(-c3ccccc3Cl)nc3ccc(Br)cc23)CC1` [Example 183, 6-Bromo-2-(2-chlorophenyl)-4-(4-methylpiperazin-1-yl)quinazoline], the EC50 in assay [1] (setting [3]) is under 1000 nM. As for `COC(CNc1nc(-c2ccccc2Cl)nc2ccccc12)OC` [Example 230, 2-(2-Chlorophenyl)-N-(2,2-dimethoxyethyl)quinazolin-4-amine], in assay [1] (setting [3]), the EC50 was over 1000 nM. In the case of `O=S(=O)(NCc1nc(N2CCOCC2)c2ccccc2n1)c1ccccc1Br` [Example 292, 2-Bromo-N-((4-morpholinoquinazolin-2-yl)methyl)benzenesulfonamide], the EC50 in assay [1] (setting [3]) was under 1000 nM. On the same count and under the same terms, as for `CN(Cc1ccccc1)c1nc(C2CCCCC2)nc2ccccc12` [Example 39, N-Benzyl-2-cyclohexyl-N-methylquinazolin-4-amine], the figure is under 1000 nM. `O=S(=O)(NCc1nc(N2CCOCC2)c2ccccc2n1)c1ccc(Cl)cc1` [Example 293, 4-Chloro-N-((4-morpholinoquinazolin-2-yl)methyl)benzenesulfonamide]: the EC50 in assay [1] (setting [3]) is over 1000 nM. `Cc1c(Cl)cccc1S(=O)(=O)NCc1nc(N2CCOCC2)c2ccccc2n1` [Example 295, 3-Chloro-2-methyl-N-((4-morpholinoquinazolin-2-yl)methyl)benzenesulfonamide]: the EC50 in assay [1] (setting [3]) was over 1000 nM. On the same count and under the same terms, for `CCOC(=O)N1CCN(c2nc(-c3ccc(Cl)cc3)nc3ccc(Cl)cc23)CC1` [Example 210, Ethyl 4-(6-chloro-2-(4-chlorophenyl)quinazolin-4-yl)piperazine-1-carboxylate] the value was over 1000 nM; for `CC(C)(C)c1ccc(Nc2nc(-c3ccc(OC(F)(F)F)cc3)nc3ccccc23)cc1` [Example 143, (4-tert-Butylphenyl)-[2-(4-trifluoromethoxyphenyl)-quinazolin-4-yl]amine], over 1000 nM.
